Results as given in ChEMBL document CHEMBL5321227, “Lysosome-targeting phenalenones as efficient type I/II photosensitizers for anticancer photodynamic therapy” (Eur J Med Chem, 2023).
pIC50: −log10 of the molar value. Calls of active or inactive are those of the source. The calls are words filed in the database; no cut-off is given here.

Tests used:
[1] = system: MDA-MB-231; assay: Anticancer activity against human MDA-MB-231 cells assessed as reduction in cell viability at 0.01 to 10 uM incubated for 24 hrs by CCK-8 assay; type: functional, cell-based; conditions: dose 0.01-10 µM
[2] = Toxicity in BALB/c mouse xenografted with mouse 4T1 cells assessed as histopathological lesion in lung at 5 mg/kg,IT(Intratumoral) for 14 days by Hematoxylin and Eosin staining based microscopy; type: organism-based; conditions: in vivo, other, 336 h, time 14 day
[3] = Drug metabolism in human MDA-MB-231 cells assessed as increase in carboxylesterase mediated SR release at 5 uM incubated for 2 hrs by confocal laser scanning microscopy; type: ADME, cell-based; conditions: mda-mb-231, 2 h
[4] = Drug metabolism in human MDA-MB-231 cells assessed as increase in SR expression at 5 uM incubated for 2 hrs by flow cytometry analysis; type: ADME, cell-based; conditions: mda-mb-231, 2 h
[5] = Drug uptake in tumor of BALB/c mouse xenografted with mouse 4T1 cells at 5 mg/kg,IT(Intratumoral) and measured for 6 to 72 hrs by fluorescence imaging analysis; type: ADME, organism-based, Neoplasm; conditions: in vivo, other, time 6-72 hrs
[6] = Toxicity in BALB/c mouse xenografted with mouse 4T1 cells assessed as tissue destruction with large spaces in heart at 5 mg/kg,IT(Intratumoral) for 14 days followed by photoirradiation with 500 to 700nm light (0.5 W) for 6 hrs by Hematoxylin and Eosin staining based microscopy; type: organism-based; conditions: in vivo, other, 342 h, time 14.25 day
[7] = Drug uptake in heart of BALB/c mouse xenografted with mouse 4T1 cells at 5 mg/kg,IT(Intratumoral) and measured after 6 hrs by fluorescence imaging analysis; type: ADME, organism-based; conditions: in vivo, other
[8] = Drug uptake in spleen of BALB/c mouse xenografted with mouse 4T1 cells at 5 mg/kg,IT(Intratumoral) and measured after 6 hrs by fluorescence imaging analysis; type: ADME, organism-based; conditions: in vivo, other
[9] = Stability of compound in H2O2 at 10 uM incubated for 30 mins by fluorescence assay; type: physicochemical; conditions: 0.5 h
[10] = Drug metabolism in mouse 4T1 cells assessed as increase in carboxylesterase mediated 6-amino-5-iodo-1H-phenalen-1-one release at 5 uM incubated for 2 hrs by confocal laser scanning microscopy; type: ADME, cell-based; conditions: 4t1, 2 h
[11] = Drug metabolism in carboxylesterase (unknown origin) assessed as formation of active photosensitizer 6-amino-5-iodo-1H-phenalen-1-one at 10 uM under by LC-MS/MS analysis assay; type: ADME; conditions: human
[12] = Drug uptake in tumor BALB/c mouse xenografted with mouse 4T1 cells at 5 mg/kg,IT(Intratumoral) and measured after 6 hrs by fluorescence imaging analysis; type: ADME, organism-based, Neoplasm; conditions: in vivo, other
[13] = Toxicity in BALB/c mouse xenografted with mouse 4T1 cells assessed as tissue destruction with large spaces in kidney at 5 mg/kg,IT(Intratumoral) for 14 days followed by photoirradiation with 500 to 700nm light (0.5 W) for 6 hrs by Hematoxylin and Eosin staining based microscopy; type: organism-based; conditions: in vivo, other, 342 h, time 14.25 day
[14] = Toxicity in BALB/c mouse xenografted with mouse 4T1 cells assessed as histopathological lesion in spleen at 5 mg/kg,IT(Intratumoral) for 14 days by Hematoxylin and Eosin staining based microscopy; type: organism-based; conditions: in vivo, other, 336 h, time 14 day
[15] = system: 4T1; assay: Anticancer activity against mouse 4T1 cells assessed as fold increase in gamma-H2A.X protein expression at 1 uM preincubated for 2 hrs followed by photoirradiation with 500 to 700nm and 12 J/cm^2 LED light and measured after 24 hrs by Western blot analysis relative to control; type: functional; conditions: time 26 hrs
[16] = system: 4T1; assay: Anticancer activity against mouse 4T1 cells assessed as reduction in cell viability at 0.01 to 10 uM incubated for 24 hrs by CCK-8 assay; type: functional, cell-based; conditions: dose 0.01-10 µM
[17] = Stability of compound in various pH; type: physicochemical
[18] = Toxicity in BALB/c mouse xenografted with mouse 4T1 cells assessed as body weight change at 5 mg/kg,IT(Intratumoral) for 14 days; type: organism-based; conditions: in vivo, other, 336 h, time 14 day
[19] = Toxicity in BALB/c mouse xenografted with mouse 4T1 cells assessed as tissue destruction with large spaces in spleen at 5 mg/kg,IT(Intratumoral) for 14 days followed by photoirradiation with 500 to 700nm light (0.5 W) for 6 hrs by Hematoxylin and Eosin staining based microscopy; type: organism-based; conditions: in vivo, other, 342 h, time 14.25 day
[20] = Toxicity in BALB/c mouse xenografted with mouse 4T1 cells assessed as body weight change at 5 mg/kg,IT(Intratumoral) for 14 days followed by photoirradiation with 500 to 700nm light (0.5 W) for 6 hrs; type: organism-based; conditions: in vivo, other, 342 h, time 14.25 day
[21] = Drug metabolism in carboxylesterase (unknown origin) assessed as formation of active photosensitizer 6-amino-5-iodo-1H-phenalen-1-one by measuring increase in fluorescence at 610nM at 10 uM under by fluorescence assay; type: ADME; conditions: human
[22] = Drug uptake BALB/c mouse xenografted with mouse 4T1 cells assessed as increase in fluorescence signal in tumor at 5 mg/kg,IT(Intratumoral) and measured for 1 to 6 hrs by fluorescence imaging analysis; type: ADME, organism-based, Neoplasm; conditions: in vivo, other, time 1-6 hrs
[23] = Stability of compound in gamma-glutamyl transpeptidase at 10 uM incubated for 30 mins by fluorescence assay; type: physicochemical; conditions: 0.5 h
[24] = Toxicity in BALB/c mouse xenografted with mouse 4T1 cells assessed as tissue destruction with large spaces in lung at 5 mg/kg,IT(Intratumoral) for 14 days followed by photoirradiation with 500 to 700nm light (0.5 W) for 6 hrs by Hematoxylin and Eosin staining based microscopy; type: organism-based; conditions: in vivo, other, 342 h, time 14.25 day
[25] = Toxicity in BALB/c mouse xenografted with mouse 4T1 cells assessed as histopathological lesion in liver at 5 mg/kg,IT(Intratumoral) for 14 days by Hematoxylin and Eosin staining based microscopy; type: organism-based; conditions: in vivo, other, 336 h, time 14 day
[26] = Toxicity in BALB/c mouse xenografted with mouse 4T1 cells assessed as histopathological lesion in heart at 5 mg/kg,IT(Intratumoral) for 14 days by Hematoxylin and Eosin staining based microscopy; type: organism-based; conditions: in vivo, other, 336 h, time 14 day
[27] = Photostability of compound in EtOH assessed as compound decomposition at 50 uM incubated for 5 to 20 mins under photoirradiation with 550nm and 10 J/cm^2 LED light by UV-visible spectroscopic analysis; type: physicochemical; conditions: time 5-20 min
[28] = Drug uptake in liver of BALB/c mouse xenografted with mouse 4T1 cells at 5 mg/kg,IT(Intratumoral) and measured after 6 hrs by fluorescence imaging analysis; type: ADME, organism-based; conditions: in vivo, other
[29] = system: MDA-MB-231; assay: Anticancer activity against human MDA-MB-231 cells assessed as reduction in cell viability preincubated for 2 hrs followed by photoirradiation with 500 to 700nm and 12 J/cm^2 LED light for 24 hrs by CCK-8 assay; type: functional, cell-based; conditions: MDA-MB-231, light or radiation study
[30] = Toxicity in BALB/c mouse xenografted with mouse 4T1 cells assessed as tissue destruction with large spaces in tumor at 5 mg/kg,IT(Intratumoral) for 14 days followed by photoirradiation with 500 to 700nm light (0.5 W) for 6 hrs by Hematoxylin and Eosin staining based microscopy; type: organism-based; conditions: in vivo, other, 342 h, time 14.25 day
[31] = system: 4T1; assay: Anticancer activity against mouse 4T1 cells assessed as reduction in cell viability preincubated for 2 hrs followed by photoirradiation with 500 to 700nm and 12 J/cm^2 LED light for 24 hrs by CCK-8 assay; type: functional, cell-based; conditions: 4T1, light or radiation study
[32] = Induction of singlet oxygen production in ethanol assessed as singlet oxygen quantum yield at 410nm under photoirradiation with 550nm and 10 mW/cm^2 LED light for 10 to 80 secs by DPBF based microplate reader analysis; type: functional; conditions: time 10-80 sec

Drug metabolism [3]: Metabolite_Detected | Drug metabolism [4]: Metabolite_Detected | Drug uptake [5]: Not Active | Drug uptake [7]: Not Active | Drug uptake [8]: Not Active | Stability [9]: Stable | Drug metabolism [10]: Metabolite_Detected | Drug uptake [12]: Active | Stability [17]: Stable | Drug uptake [22]: Active | Stability [23]: Stable | Stability [27]: Stable | Drug uptake [28]: Active | pIC50 [29]: 5.80 | pIC50 [31]: 5.88
Structure (SMILES): O=C(CCl)Nc1c(I)cc2c3c(cccc13)C(=O)C=C2
Activity [1]: Active | Activity [2]: Non-Toxic | Activity [6]: Toxic | Drug metabolism [11]: Metabolite_Detected | Activity [13]: Toxic | Activity [14]: Non-Toxic | fold change (FC) [15]: 2.12 | Activity [16]: Active | Activity [18]: Toxic | Activity [19]: Toxic | Activity [20]: Toxic | Drug metabolism [21]: Metabolite_Detected | Activity [24]: Toxic | Activity [25]: Non-Toxic | Activity [26]: Non-Toxic | Activity [30]: Toxic | Activity [32]: 0.09
